In data set [1] the test system is SARS-CoV-2 (BetaCov/Belgium/GHB-03021/2020). Description: microbe, parasite or virus in culture. The note with it: for Emax: read-out: Maximum confluence reached (%). Format: cell-based.
Data set [2] has as its system SARS-CoV-2. The note with it: for % Inh. (% Inhibition of SARS-CoV-2): 10 µM.
Data set [3] deals with CaCo-2 cells. As to the kind of experiment: Compound cytotoxicity against CaCo-2 cells at 48 hours. Format: cell-based, Human. Conditions: read-out: CC50: concentration of 50% cytotoxicity; Table 5, further results of Examples 1 and 2; mean ± spread. The method, then:
The cytotoxicity of the profiled compounds towards CaCo-2 cells at 48 hours was assessed. […] After 48 hours, cytotoxicity was evaluated using both digital phase contrast readout as described above and ATP determination (Cell titre-glo, Promega Corp).

The subject of data set [4] is SARS-CoV-2. As to the kind of experiment: microbe, parasite or virus in culture. Conditions: Severe acute respiratory syndrome coronavirus 2, Caco-2, 48 h; for inhibition at 10 µM: read-out: % Inh. (% Inhibition of SARS-CoV-2).
The mark [5] stands for this setting: Table 5, further results of Examples 1 and 2.
The mark [6] stands for this setting: read-out: IC50: concentration of 50% inhibition of virus infection, Table 5, further results of Examples 1 and 2, […].
[7] abbreviates: Severe acute respiratory syndrome coronavirus 2, 120 h.

Data on 25 compounds can be found in patent US20230126310A1 (priority 2020, published 2023).

Counter-ions that a name gives are not always drawn. Like-named read-outs stand apart in the source and are kept apart here. A value given as a limit tells only on which side of the number the result lay.

The term pIC50 denotes −log10 of the IC50, conventionally taken in molar units. What is called inhibition is the relative decrease from the control value, in per cent.

`Cn1cc(-c2ccncc2)c(-c2ccc(OCc3ccc4ccccc4n3)cc2)n1` [PF-2545920]: the “Maximum confluence reached (%)” value in data set [1] turned out to be 36.73%. The “% Inh. (% Inhibition of SARS-CoV-2)” value in data set [2] is reported as 67.8%.

As for `CC(C)(C)c1cc(/C=C(\C#N)C(N)=S)cc(C(C)(C)C)c1O` [Tyrphostin AG 879 (AG 879), Tyrphostin AG 879], the CC50 in data set [3] was 1.36 ± 0.08 µM. Further, in data set [2], the IC50 amounted to 0.2 µM, the negative logarithm of the IC50 (pIC50) is on record as 6.70 and the “% Inh. (% Inhibition of SARS-CoV-2)” value was 104.2%. Moreover, in data set [2] (setting [5]), the “pIC50: -log10 of IC50” value is 6.70. The IC50 in data set [2] (setting [6]) was found to be 0.2 ± 0.01 µM.

For the compound `CCCCC1(C2CCCC2)Cc2cc(OCCCC(=O)O)c(Cl)c(Cl)c2C1=O` (stereo not drawn) [DCPIB], the CC50 in data set [3] came to 24.6 ± 11.7 µM. Besides, in data set [2], the “% Inh. (% Inhibition of SARS-CoV-2)” value came out at 80.3%.

`C[CH2][Hg][S]c1ccccc1C(=O)[O-].[Na+]` [THIMEROSAL]: in data set [3], the CC50 is 13.5 ± 1.23 µM. For the same compound, in data set [2], the IC50 is 1.77 µM, the negative-log IC50 (pIC50) was 5.75, the “pIC50: -log10 of IC50” value was 5.77 and the “% Inh. (% Inhibition of SARS-CoV-2)” value stood at 79.4%. In data set [2] (read-out: IC50: concentration of 50% inhibition of virus infection), the IC50 was found to be 1.69 ± 0.13 µM.

For `CCOC(=O)c1ncc2[nH]c3ccc(OCc4ccccc4)cc3c2c1COC.Cl` [ZK-93423], the CC50 in data set [3] is 0.91 ± 0.13 µM. In data set [2], the IC50 worked out at 1.28 µM, the negative logarithm of the IC50 (pIC50) stood at 5.89 and the “% Inh. (% Inhibition of SARS-CoV-2)” value worked out at 75.1%. In addition, the “pIC50: -log10 of IC50” value in data set [2] (setting [5]) came to 5.87. Further, the IC50 in data set [2] (setting [6]) turned out to be 1.34 ± 0.92 µM.

Take polidocanol: the CC50 in data set [3] was determined as 10.3 ± 1.62 µM. Besides, in data set [2], the pIC50 is reported as 6.68 and the “% Inh. (% Inhibition of SARS-CoV-2)” value was found to be 85.8%. The “pIC50: -log10 of IC50” value in data set [2] (setting [5]) turned out to be 6.66. Further, the IC50 in data set [2] (setting [6]) worked out at 0.22 ± 0.02 µM.

Consider `COc1cc2ncnc(Nc3cccc(Br)c3)c2cc1OC.Cl` [PD153035 (Hydrochloride)], for which, in data set [1], the “Maximum confluence reached (%)” value was determined as 54.45%. Moreover, the “% Inh. (% Inhibition of SARS-CoV-2)” value in data set [2] came out at 97.2%.

In the case of `CC(=O)[C@]1(O)Cc2c(O)c3c(c(O)c2[C@@H](O[C@H]2C[C@H](N)[C@H](O)[C@H](C)O2)C1)C(=O)c1ccccc1C3=O` [Idarubicin HCl], the Emax in data set [1] (setting [7]) worked out at 92.6%. Also, the results for the IC50 in data set [4] and in data set [4] (read-out: pIC50 (converted)) were 25 µM and 25.1 µM, respectively. Besides, the inhibition at 10 µM in data set [4] was 86.6%.

`Cc1ccc(NC(=O)c2ccc(CN3CCN(C)CC3)cc2)cc1Nc1nc(-c2cccnc2)cs1` [Masitinib (AB1010), Masitinib]: in data set [1] (setting [7]), the Emax was 57.1%. Besides, the inhibition at 10 µM in data set [4] came out at 108%.

Take `CCS(=O)(=O)N(Cc1cccnc1)c1cccc(-c2ccc(C#N)cc2)c1` [CBiPES]: in data set [3], the CC50 is 13.4 ± 6.58 µM. Besides, the “% Inh. (% Inhibition of SARS-CoV-2)” value in data set [2] amounted to 139.6%. Besides, the “pIC50: -log10 of IC50” value in data set [2] (setting [5]) worked out at 4.77. Besides, in data set [2] (setting [6]), the IC50 worked out at 17.1 ± 1.17 µM.

On to `FC(F)(F)Oc1ccc2nc(-c3ccc(OCCOCCOc4ccc(-c5nc6ccc(OC(F)(F)F)cc6[nH]5)nc4)cn3)[nH]c2c1` [AI-10-49], for which the CC50 in data set [3] was 6.58 ± 9.76 µM. For the same compound, in data set [2], the negative-log IC50 (pIC50) is recorded as 6.68 and the “% Inh. (% Inhibition of SARS-CoV-2)” value is 103.8%. Besides, in data set [2] (setting [5]), the “pIC50: -log10 of IC50” value is given as 6.72. Besides, the IC50 in data set [2] (setting [6]) worked out at 0.19 ± 0.06 µM.

Consider `Cl.Nc1nc(NCC2CCC(CNS(=O)(=O)c3cccc4ccccc34)CC2)nc2ccccc12` (stereo not drawn) [CGP-71683], for which the “Maximum confluence reached (%)” value in data set [1] was 39.25%. Moreover, the “% Inh. (% Inhibition of SARS-CoV-2)” value in data set [2] was determined as 102.5%.

For the compound `CCCc1c(-c2ccc(O)cc2)nn(-c2ccc(O)cc2)c1-c1ccc(O)cc1` [PPT], the “Maximum confluence reached (%)” value in data set [1] is 48.2%. Also, the IC50 in data set [1] (read-out: IC50) worked out at 8.3 µM. In addition, in data set [2], the “% Inh. (% Inhibition of SARS-CoV-2)” value turned out to be 71.1%.

`Cn1cc(-c2ccc3c(c2)CCN3C(=O)Cc2cccc(C(F)(F)F)c2)c2c(N)ncnc21` [GSK2606414]: the CC50 in data set [3] is 70.4 ± 15.3 µM. Besides, in data set [2], the IC50 is 0.2 µM, the negative-log IC50 (pIC50) was found to be 6.70 and the “% Inh. (% Inhibition of SARS-CoV-2)” value stood at 109.9%. The “pIC50: -log10 of IC50” value in data set [2] (setting [5]) is 6.60. For the same compound, in data set [2] (setting [6]), the IC50 amounted to 0.25 ± 0.06 µM.

For `CC(C)C(=O)OCC(=O)[C@@]12O[C@H](C3CCCCC3)O[C@@H]1C[C@H]1[C@@H]3CCC4=CC(=O)C=C[C@]4(C)[C@H]3[C@@H](O)C[C@@]12C` [Ciclesonide], in data set [1] (setting [7]), the IC50 was 47 µM and the Emax is 35.2%. For the same compound, the inhibition at 10 µM in data set [4] turned out to be 85.4%.

With `C=C(c1ccccc1OCc1cccc(Cl)c1)n1ccnc1` [Cloconazole HCl], the CC50 in data set [3] is 33 µM. For the same compound, the “% Inh. (% Inhibition of SARS-CoV-2)” value in data set [2] is listed as 92.8%.

`Cc1nn(C)c2nc(NNC(=O)Nc3cc(Cl)nc(Cl)c3)cc(C(C)C)c12` [JTE-013]: the CC50 in data set [3] was determined as 16.4 ± 0.42 µM. Besides, in data set [2], the IC50 stood at 3.66 µM, the pIC50 was 5.44 and the “% Inh. (% Inhibition of SARS-CoV-2)” value is on record as 105.9%. In data set [2] (setting [5]), the “pIC50: -log10 of IC50” value is 5.22. For the same compound, the IC50 in data set [2] (setting [6]) came to 5.97 ± 0.15 µM.

Take `CC(C)(C)c1ccc(/C=C/C(=O)Nc2ccc3c(c2)OCCO3)cc1` [AMG-9810]: the CC50 in data set [3] came out at 14.2 ± 17.9 µM. Moreover, in data set [2], the “% Inh. (% Inhibition of SARS-CoV-2)” value is on record as 93.7%.

`C/C(=N\NC(=S)N1CCC1)c1ccccn1` [NSC319726]: in data set [3], the CC50 is below 0.02 µM. Moreover, in data set [2], the negative-log IC50 (pIC50) was 8.00 and the “% Inh. (% Inhibition of SARS-CoV-2)” value was found to be 104.2%. In data set [2] (setting [5]), the “pIC50: -log10 of IC50” value is given as above 7.70. In addition, the IC50 in data set [2] (setting [6]) was below 0.02 µM.

As to `NC(=NC1C2CC3CC(C2)CC1C3)Nc1ccc(I)cc1` (stereo not drawn) [IPAG], the “Maximum confluence reached (%)” value in data set [1] is 81.85%. Moreover, in data set [3], the CC50 worked out at 11.5 ± 9.83 µM. Moreover, the “% Inh. (% Inhibition of SARS-CoV-2)” value in data set [2] is reported as 180.5%. Besides, the “pIC50: -log10 of IC50” value in data set [2] (setting [5]) amounted to 5.22. The IC50 in data set [2] (setting [6]) was 5.96 ± 0.57 µM.

Consider `Nc1nccc(-c2c(-c3ccc(F)cc3)ncn2C2CCCCC2)n1` [PF-670462], for which, in data set [3], the CC50 was determined as 8.24 ± 7.87 µM. Moreover, the “% Inh. (% Inhibition of SARS-CoV-2)” value in data set [2] is listed as 111.6%.

On to `OCCNC1CCCc2c1[nH]c1ccc(-c3ccccc3)cc21` (stereo not drawn) [casin], for which, in data set [1], the “Maximum confluence reached (%)” value came to 50.81%. In addition, the “% Inh. (% Inhibition of SARS-CoV-2)” value in data set [2] was 71.2%.

Consider `CCCCN(CCCC)CCC(O)c1cc2c(Cl)cc(Cl)cc2c2cc(C(F)(F)F)ccc12` (stereo not drawn) [Halofantrine], for which the Emax in data set [1] (setting [7]) came out at 51.8%. Moreover, the inhibition at 10 µM in data set [4] was 91.4%.

Take `CC[C@@H](C(=O)[C@@H](C)[C@@H](O)[C@H](C)[C@@H]1O[C@@H]([C@@H](CC)C(=O)O)CC[C@@H]1C)[C@H]1O[C@]2(C=C[C@@H](O)[C@]3(CC[C@@](C)([C@H]4CC[C@](O)(CC)[C@H](C)O4)O3)O2)[C@H](C)C[C@@H]1C` [Salinomycin (Procoxacin), Salinomycin]: in data set [1] (setting [7]), the Emax worked out at 34.4%. For the same compound, the inhibition at 10 µM in data set [4] stood at 90.2%.

On to `Cc1cccc2c1CC[C@H](CN1CCC(c3c(Cl)cccc3Cl)CC1)C[C@@H]2O` [SB-612111], for which, in data set [3], the CC50 was 3.67 ± 3.21 µM. The “% Inh. (% Inhibition of SARS-CoV-2)” value in data set [2] is given as 146.6%. Further, the “pIC50: -log10 of IC50” value in data set [2] (setting [5]) was 6.11. Further, the IC50 in data set [2] (setting [6]) is 0.77 ± 0.29 µM.
